In ChEMBL document CHEMBL1201861, “Genomics of Drug Sensitity in Cancer screening data, Wellcome Trust Sanger Institute”:

What was measured:
Format in all cases: functional, cell-based
COLO-792 = test: cells; details: Homo sapiens
Description: SANGER: Inhibition of human COLO-792 cell growth in a cell viability assay.

COR-L279 = test: SANGER: Inhibition of human COR-L279 cell growth in a cell viability assay.
Calu-3 = test: cells; details: Homo sapiens
Description: SANGER: Inhibition of human Calu-3 cell growth in a cell viability assay.

D-392MG = test: cells; details: Homo sapiens
DMS-273 = test: cells; details: Homo sapiens
Description: SANGER: Inhibition of human DMS-273 cell growth in a cell viability assay.

Daoy = test: cells; details: Homo sapiens
Description: SANGER: Inhibition of human Daoy cell growth in a cell viability assay.

Daudi = test: cells; details: Homo sapiens
Description: SANGER: Inhibition of human Daudi cell growth in a cell viability assay.

EB-3 = test: cells; details: Homo sapiens
Description: SANGER: Inhibition of human EB-3 cell growth in a cell viability assay.

H4 = test: cells; details: Homo sapiens
Description: SANGER: Inhibition of human H4 cell growth in a cell viability assay.

HCC1954 = test: cells; details: Homo sapiens
Description: SANGER: Inhibition of human HCC1954 cell growth in a cell viability assay.

HCC 2998 = test: cells; details: Homo sapiens
Description: SANGER: Inhibition of human HCC2998 cell growth in a cell viability assay.

HCC38 = test: cells; details: Homo sapiens
Description: SANGER: Inhibition of human HCC38 cell growth in a cell viability assay.

HO-1-N-1 = test: cells; details: Homo sapiens
Description: SANGER: Inhibition of human HO-1-N-1 cell growth in a cell viability assay.

HOS = test: cells; details: Homo sapiens
Description: SANGER: Inhibition of human HOS cell growth in a cell viability assay.

HSC-2 = test: cells; details: Homo sapiens
Description: SANGER: Inhibition of human HSC-2 cell growth in a cell viability assay.

Huh-7 = test: cells; details: Homo sapiens
Description: SANGER: Inhibition of human HuH-7 cell growth in a cell viability assay.

HuP-T3 = test: cells; details: Homo sapiens
Description: SANGER: Inhibition of human HuP-T3 cell growth in a cell viability assay.

HuP-T4 = test: cells; details: Homo sapiens
Description: SANGER: Inhibition of human HuP-T4 cell growth in a cell viability assay.

KMS-12-PE = test: cells; details: Homo sapiens
Description: SANGER: Inhibition of human KMS-12-PE cell growth in a cell viability assay.

KU-19-19 = test: cells; details: Homo sapiens
Description: SANGER: Inhibition of human KU-19-19 cell growth in a cell viability assay.

L-540 = test: cells; details: Homo sapiens
Description: SANGER: Inhibition of human L-540 cell growth in a cell viability assay.

MC-IXC = test: cells; details: Homo sapiens
Description: SANGER: Inhibition of human MC-IXC cell growth in a cell viability assay.

MDA-MB-231 = test: cells; details: Homo sapiens
Description: SANGER: Inhibition of human MDA-MB-231 cell growth in a cell viability assay.

MDA-MB-361 = test: cells; details: Homo sapiens
MEL-HO = test: cells; details: Homo sapiens
Description: SANGER: Inhibition of human MEL-HO cell growth in a cell viability assay.

MKN-1 = test: cells; details: Homo sapiens
Description: SANGER: Inhibition of human MKN1 cell growth in a cell viability assay.

NALM-6 = test: cells; details: Homo sapiens
Description: SANGER: Inhibition of human NALM-6 cell growth in a cell viability assay.

NCI-H1436 = test: cells; details: Homo sapiens
Description: SANGER: Inhibition of human NCI-H1436 cell growth in a cell viability assay.

NCI-H1793 = test: cells; details: Homo sapiens
Description: SANGER: Inhibition of human NCI-H1793 cell growth in a cell viability assay.

NCI-H2087 = test: cells; details: Homo sapiens
Description: SANGER: Inhibition of human NCI-H2087 cell growth in a cell viability assay.

NCI-H2196 = test: cells; details: Homo sapiens
Description: SANGER: Inhibition of human NCI-H2196 cell growth in a cell viability assay.

NCI-H358 = test: cells; details: Homo sapiens
Description: SANGER: Inhibition of human NCI-H358 cell growth in a cell viability assay.

NCI-H460 = test: cells; details: Homo sapiens
Description: SANGER: Inhibition of human NCI-H460 cell growth in a cell viability assay.

NCI-H522 = test: cells; details: Homo sapiens
Description: SANGER: Inhibition of human NCI-H522 cell growth in a cell viability assay.

NCI-H630 = test: cells; details: Homo sapiens
Description: SANGER: Inhibition of human NCI-H630 cell growth in a cell viability assay.

NCI-H64 = test: cells; details: Homo sapiens
Description: SANGER: Inhibition of human NCI-H64 cell growth in a cell viability assay.

NCI-H716 = test: cells; details: Homo sapiens
Description: SANGER: Inhibition of human NCI-H716 cell growth in a cell viability assay.

NCI-H810 = test: cells; details: Homo sapiens
Description: SANGER: Inhibition of human NCI-H810 cell growth in a cell viability assay.

OAW-42 = test: cells; details: Homo sapiens
Description: SANGER: Inhibition of human OAW-42 cell growth in a cell viability assay.

SCLC-21H = test: cells; details: Homo sapiens
Description: SANGER: Inhibition of human SCLC-21H cell growth in a cell viability assay.

SIMA = test: cells; details: Homo sapiens
Description: SANGER: Inhibition of human SIMA cell growth in a cell viability assay.

SK-MM-2 = test: cells; details: Homo sapiens
Description: SANGER: Inhibition of human SK-MM-2 cell growth in a cell viability assay.

SK-OV-3 = test: cells; details: Homo sapiens
Description: SANGER: Inhibition of human SK-OV-3 cell growth in a cell viability assay.

SN12C = test: cells; details: Homo sapiens
Description: SANGER: Inhibition of human SN12C cell growth in a cell viability assay.

SNU-C1 = test: cells; details: Homo sapiens
Description: SANGER: Inhibition of human SNU-C1 cell growth in a cell viability assay.

SR = test: cells; details: Homo sapiens
Description: SANGER: Inhibition of human SR cell growth in a cell viability assay.

ST486 = test: SANGER: Inhibition of human ST486 cell growth in a cell viability assay.
SW1710 = test: cells; details: Homo sapiens
Description: SANGER: Inhibition of human SW1710 cell growth in a cell viability assay.

SiHa = test: cells; details: Homo sapiens
Description: SANGER: Inhibition of human SiHa cell growth in a cell viability assay.

23132-87 = test: cells; details: Homo sapiens
Description: SANGER: Inhibition of human 23132-87 cell growth in a cell viability assay.

786-0 = test: cells; details: Homo sapiens
Description: SANGER: Inhibition of human 786-0 cell growth in a cell viability assay.

8305C = test: cells; details: Homo sapiens
Description: SANGER: Inhibition of human 8305C cell growth in a cell viability assay.

A2058 = test: cells; details: Homo sapiens
Description: SANGER: Inhibition of human A2058 cell growth in a cell viability assay.

A2780 = test: cells; details: Homo sapiens
Description: SANGER: Inhibition of human A2780 cell growth in a cell viability assay.

A-427 = test: cells; details: Homo sapiens
Description: SANGER: Inhibition of human A427 cell growth in a cell viability assay.

A-431 = test: cells; details: Homo sapiens
Description: SANGER: Inhibition of human A431 cell growth in a cell viability assay.

AN3-CA = test: cells; details: Homo sapiens
Description: SANGER: Inhibition of human AN3-CA cell growth in a cell viability assay.

ASPC1 = test: cells; details: Homo sapiens
Description: SANGER: Inhibition of human AsPC-1 cell growth in a cell viability assay.

BCPAP = test: cells; details: Homo sapiens
Description: SANGER: Inhibition of human BCPAP cell growth in a cell viability assay.

BEN = test: cells; details: Homo sapiens
Description: SANGER: Inhibition of human BEN cell growth in a cell viability assay.

BOKU = test: cells; details: Homo sapiens
Description: SANGER: Inhibition of human BOKU cell growth in a cell viability assay.

TE-441-T = test: cells; details: Homo sapiens
Description: SANGER: Inhibition of human TE-441-T cell growth in a cell viability assay.

VM-CUB-1 = test: cells; details: Homo sapiens
Description: SANGER: Inhibition of human VM-CUB-1 cell growth in a cell viability assay.

YKG-1 = test: cells; details: Homo sapiens
Description: SANGER: Inhibition of human YKG-1 cell growth in a cell viability assay.

CMK = test: cells; details: Homo sapiens
Description: SANGER: Inhibition of human CMK cell growth in a cell viability assay.

## CC(C)=CC[C@@H](O)C1=CC(=O)c2c(O)ccc(O)c2C1=O [SHIKONIN]
COLO-792
  IC50: > 16000 nM
COR-L279
  IC50: > 16000 nM
Calu-3
  IC50: 1110 nM
D-392MG
  IC50: 915 nM
DMS-273
  IC50: 396 nM
Daoy
  IC50: 159 nM
Daudi
  IC50: 3440 nM
EB-3
  IC50: 1140 nM
H4
  IC50: 284 nM
HCC1954
  IC50: 902 nM
HCC 2998
  IC50: > 16000 nM
HCC38
  IC50: 787 nM
HO-1-N-1
  IC50: 462 nM
HOS
  IC50: 186 nM
HSC-2
  IC50: 223 nM
Huh-7
  IC50: 1960 nM
HuP-T3
  IC50: 834 nM
HuP-T4
  IC50: 1360 nM
KMS-12-PE
  IC50: 559 nM
KU-19-19
  IC50: 3180 nM
L-540
  IC50: 4900 nM
MC-IXC
  IC50: 387 nM
MDA-MB-231
  IC50: 1020 nM
MDA-MB-361
  IC50: 1730 nM
MEL-HO
  IC50: 149 nM
MKN-1
  IC50: 236 nM
NALM-6
  IC50: < 62.5 nM
NCI-H1436
  IC50: 604 nM
NCI-H1793
  IC50: > 16000 nM
NCI-H2087
  IC50: 441 nM
NCI-H2196
  IC50: 654 nM
NCI-H358
  IC50: 658 nM
NCI-H460
  IC50: 1280 nM
NCI-H522
  IC50: 560 nM
NCI-H630
  IC50: 1300 nM
NCI-H64
  IC50: 547 nM
NCI-H716
  IC50: > 16000 nM
NCI-H810
  IC50: 503 nM
OAW-42
  IC50: 578 nM
SCLC-21H
  IC50: 1360 nM
SIMA
  IC50: 2320 nM
SK-MM-2
  IC50: 499 nM
SK-OV-3
  IC50: 1560 nM
SN12C
  IC50: 1760 nM
SNU-C1
  IC50: > 16000 nM
SR
  IC50: 141 nM
ST486
  IC50: < 62.5 nM
SW1710
  IC50: < 62.5 nM
SiHa
  IC50: > 16000 nM
23132-87
  IC50: 2110 nM
786-0
  IC50: 344 nM
8305C
  IC50: 305 nM
A2058
  IC50: 919 nM
A2780
  IC50: 2560 nM
A-427
  IC50: 18 nM
A-431
  IC50: 107 nM
AN3-CA
  IC50: 79.6 nM
ASPC1
  IC50: 619 nM
BCPAP
  IC50: 923 nM
BEN
  IC50: 814 nM
BOKU
  IC50: 1870 nM
TE-441-T
  IC50: < 62.5 nM
VM-CUB-1
  IC50: 1030 nM
YKG-1
  IC50: 229 nM
CMK
  IC50: 352 nM
